# Experimental data published in PMC4988493 (Nature, 2015).
# Target: UbiX (Pseudomonas aeruginosa, UniProt Q9HX08)
# Test: crystal structure
# Assay type: binding
# Settings: complex with DMAP
# Sequence of UbiX (Q9HX08 whole entry): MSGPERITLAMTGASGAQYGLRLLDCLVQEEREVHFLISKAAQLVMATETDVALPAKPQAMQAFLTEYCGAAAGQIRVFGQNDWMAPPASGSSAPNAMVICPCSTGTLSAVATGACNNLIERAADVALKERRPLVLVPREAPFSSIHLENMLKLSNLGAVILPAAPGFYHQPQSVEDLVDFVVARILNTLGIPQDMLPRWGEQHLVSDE
smiles,measurement,value
Cc1cc2nc3c(=O)[nH]c(=O)nc-3n(C[C@H](O)[C@H](O)[C@H](O)COP(=O)(O)O)c2cc1C [FMN],crystal structure,crystal structure of P. aeruginosa UbiX in complex with oxidized FMN and DMAP
